Measured values published in US8999987B2, “Dihydropyridophthalazinone inhibitors of poly(ADP-ribose)polymerase (PARP)” (BioMarin Pharmaceutical Inc., priority 2008, dated 2015).

Experiments:
PARP-1 = PARP-1 (Homo sapiens, UniProt P09874); details: PARP-1 inhibitor; cited from earlier work
[1] = system: BRCA2-deficient cell line V-C8; details: V-C8 compared with the BRCA2 wild type control; cited from earlier work
CAPAN-1 cells = CAPAN-1 cells in DMEM with FCS (20% v/v); cited from earlier work
BRCA2-deficient tumors = details: cited from earlier work
MX-1 xenograft model = test: Xenograft combination study with Cisplatin; type: in vivo, mice; details: MX-1 breast xenograft model; comparable doses of cisplatin or PARP inhibitor alone
Protocol: Female athymic nu/nu mice (8-10 weeks old) were used for all in vivo xenograft studies. Mice were quarantined for at least 1 week before experimental manipulation. Exponentially growing cells or in vivo passaged tumor fragments were implanted subcutaneously at the right flank of nude mice. Tumor-bearing mice were randomized according to tumor size into 6-8 mice/group in each study (average tumor size ˜150 mm^3). Mice were observed daily for survival and tumors were measured twice weekly by caliper in two dimensions and converted to tumor mass using the formula for a prolate ellipsoid (V=0.5 a×b^2), where a and b are the long and short diameters of the tumor, respectively, and assuming unit density (1 mm^3=1 mg).
Combination study: PARP inhibitory compounds described herein in vehicle 10% DMAc/6% Solutal/84% PBS, were either administered orally, once daily for 5 days with Temozolomide (17 mg/kg or 34 mg/kg, p.o., qd×5, 30 min after each dose of compounds) in SW620 xenograft model or dosed orally, once daily for 8 days with 6 mg/kg Cisplatin (once by ip on day 3, 30 min after first dose of PARP inhibitors) in MX-1 xenograft model. Mice were observed and individual tumor was measured for 30 more days after the last dosing of PARP inhibitory compounds.

Chain of PARP-1 (P09874 whole entry, species assumed): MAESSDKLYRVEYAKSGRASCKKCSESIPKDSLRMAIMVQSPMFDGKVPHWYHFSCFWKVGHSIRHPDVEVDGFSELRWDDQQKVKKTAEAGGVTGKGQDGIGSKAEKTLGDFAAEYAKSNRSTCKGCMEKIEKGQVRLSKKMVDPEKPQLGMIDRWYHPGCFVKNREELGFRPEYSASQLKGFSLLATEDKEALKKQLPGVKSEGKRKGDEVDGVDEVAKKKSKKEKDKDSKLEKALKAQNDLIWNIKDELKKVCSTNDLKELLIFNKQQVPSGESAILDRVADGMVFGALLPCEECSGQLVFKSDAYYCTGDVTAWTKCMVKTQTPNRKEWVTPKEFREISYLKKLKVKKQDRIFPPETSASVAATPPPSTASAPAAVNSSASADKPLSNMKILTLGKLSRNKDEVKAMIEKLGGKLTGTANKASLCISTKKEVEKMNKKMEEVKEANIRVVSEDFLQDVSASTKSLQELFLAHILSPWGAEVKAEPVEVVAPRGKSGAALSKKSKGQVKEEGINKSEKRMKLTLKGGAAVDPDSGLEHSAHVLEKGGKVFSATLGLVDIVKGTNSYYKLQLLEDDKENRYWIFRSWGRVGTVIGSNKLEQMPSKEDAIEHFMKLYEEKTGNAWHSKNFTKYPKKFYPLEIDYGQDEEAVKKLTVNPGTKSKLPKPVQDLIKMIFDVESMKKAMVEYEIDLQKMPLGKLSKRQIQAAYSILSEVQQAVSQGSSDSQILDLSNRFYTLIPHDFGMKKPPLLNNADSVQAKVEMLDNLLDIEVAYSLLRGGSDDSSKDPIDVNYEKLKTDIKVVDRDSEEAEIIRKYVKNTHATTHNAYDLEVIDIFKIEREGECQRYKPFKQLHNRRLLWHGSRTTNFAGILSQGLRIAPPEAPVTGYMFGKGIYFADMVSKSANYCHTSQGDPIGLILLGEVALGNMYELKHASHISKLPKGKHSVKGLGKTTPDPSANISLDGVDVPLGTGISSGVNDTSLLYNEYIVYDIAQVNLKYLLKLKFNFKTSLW

| SMILES | Ki (PARP-1) | sensitivity in clonogenic survival assay [1] | sensitivity in clonogenic survival assay (CAPAN-1 cells) | in vivo efficacy, tumor growth (BRCA2-deficient tumors) | tumor inhibition, agent alone (MX-1 xenograft model) |
| --- | --- | --- | --- | --- | --- |
| CN(C)Cc1ccc(-c2nc3cccc4c3n2CCNC4=O)cc1 [AG14361] | 5 nM | exhibited sensitivity |  |  |  |
| O=C1CCC(=O)N1c1cc(Cc2n[nH]c(=O)c3ccccc23)ccc1F [KU0058684] |  |  | showing sensitivity to PARP inhibition | shown in vivo efficacy in blocking the growth of BRCA2-deficient tumors |  |
| Cc1nc2c(O)cccc2c(=O)[nH]1 [NU1025] | 50 nM | exhibited sensitivity |  |  |  |
| N.N.[Cl][Pt][Cl] [cisplatin] |  |  |  |  | only small to modest tumor inhibition |
